US20150125457A1, “BONE REPAIR PROMOTER” (DAIICHI SANKYO COMPANY, LIMITED, priority 2012, published 2015)
“And” between values parts separate entries of the source, which are not always exact repeats. Identical values can stand only once.

How the values were obtained:
Type in all cases: in vivo
[1] = test system: rat femur fracture model; test: Rat femur fracture model (surgically cut femoral diaphysis), three-point bending bone strength test; details: for Break deformation / Break energy / Break strength / Maximum load / Stiffness (Δ70%-20%) / Break deformation, left/right ratio / Break energy, left/right ratio / Break strength, left/right ratio / Maximum load, left/right ratio / Stiffness (Δ70%-20%), left/right ratio: mean ± SD, N=10; for Break deformation, left/right ratio / Break energy, left/right ratio / Break strength, left/right ratio / Maximum load, left/right ratio / Stiffness (Δ70%-20%), left/right ratio: ratio of left/right femurs
Procedure: (§1) A fracture model was surgically prepared at the left femoral diaphysis of a 6-week-old female SD strain (Crl: CD) IGS rat. A barbital-based anesthetic agent (Somnopentyl®, Kyoritsu Seiyaku Corporation) was intraperitoneally administered to an animal in order to anesthetize the animal. Isoflurane (Escain, Mylan Inc.) inhalation anesthesia was performed as an adjunct to anesthesia. The skin on the upside of the knee joint was incised, exfoliation was performed between the rectus femoris muscle and the vastus lateralis muscle to expose the femur. At around 0.5 mm distal from the center of the femoral diaphysis, the diaphysis was completely cut in cross-section by a bone cutter (Osada Equipment Co., Ltd.). After that, an injection needle 21G was inserted into the bone marrow between the greater trochanter and the femur neck of the left femur, and the muscle and the skin were sutured with 2 to 3 stitches. For the prevention of post-operative suppuration, potassium penicillin G for injection (Meiji Seika Kaisha, Limited) was administered as an antibiotic, and the suture site of the skin was disinfected with povidone-iodine (Isodine®, Meiji Seika Kaisha, Limited). As the test substance, CNP derivative A (SEQ ID NO: 13: the SEQ ID NO: 157 of the publication of US patent application US 2010-305031, produced by a method described in the publication) was used for repeated subcutaneous administration at 10 or 100 nmol/kg once per day for 8 weeks. Vehicle was administered to the control group. On the next day after the administration end date, the left and right femurs and the left and right tibiae were resected. For the resected bone, the bone length, and the callus size in the fracture site were measured, the left and right femurs were subjected to soft X-ray radiography, and then the healing state in the fracture site was determined. After that, a three-point bending strength test was performed by using a bone strength measuring device MZ-500S (MARUTO INSTRUMENT CO., LTD.), and a bone strength testing system CTR win Ver. 1.21 (System Supply Co., Ltd.). The bone after finishing the measurements was fixed with 10% neutral buffered formalin, and the pathologic sample was prepared and observed. The administration was performed to a group of 14 rats including spare rats. At 2, 4, and 6 weeks after the administration, one from each of the cases was sampled for follow-up, further the one in the control group, which had shown nonunion-like symptoms, was excluded from the evaluation, and eventually the results were evaluated as a group of 10 rats.

[2] = test system: rat femur fracture model; test: Rat femur fracture model, tissue observation in the femur fracture site
Procedure: as §1

[3] = test system: rat femur fracture model; test: Rat femur fracture model, soft X-ray radiography of femurs; details: 10 or 100 nmol/kg s.c. once per day for 8 weeks; FIG. 1
Procedure: A fracture model was surgically prepared at the left femoral diaphysis of a 6-week-old female SD strain (Crl: CD) IGS rat. A barbital-based anesthetic agent (Somnopentyl®, Kyoritsu Seiyaku Corporation) was intraperitoneally administered to an animal in order to anesthetize the animal. Isoflurane (Escain, Mylan Inc.) inhalation anesthesia was performed as an adjunct to anesthesia. The skin on the upside of the knee joint was incised, exfoliation was performed between the rectus femoris muscle and the vastus lateralis muscle to expose the femur. At around 0.5 mm distal from the center of the femoral diaphysis, the diaphysis was completely cut in cross-section by a bone cutter (Osada Equipment Co., Ltd.). […] For the resected bone, the bone length, and the callus size in the fracture site were measured, the left and right femurs were subjected to soft X-ray radiography, and then the healing state in the fracture site was determined. […] At 2, 4, and 6 weeks after the administration, one from each of the cases was sampled for follow-up, further the one in the control group, which had shown nonunion-like symptoms, was excluded from the evaluation, and eventually the results were evaluated as a group of 10 rats.

[4] = 10 nmol/kg s.c. once per day for 8 weeks, fractured left femur
[5] = 10 nmol/kg s.c. once per day for 8 weeks
[6] = 10 nmol/kg s.c. once per day for 8 weeks, untreated right femur
[7] = 100 nmol/kg s.c. once per day for 8 weeks, fractured left femur
[8] = 100 nmol/kg s.c. once per day for 8 weeks
[9] = 100 nmol/kg s.c. once per day for 8 weeks, untreated right femur
[10] = 10 nmol/kg, 8-week administration, left femur fracture site, grade 0-5, mean ± SD, N=10
[11] = 100 nmol/kg, 8-week administration, left femur fracture site, grade 0-5, mean ± SD, N=10
[12] = 100 nmol/kg, 8 weeks, compared to the control group

Substance: CNP derivative A: CNP (1-22) Ghrelin (12-28, E17D): SEQ ID NO: 13; SEQ ID NO: 157 of US 2010-305031 (GLSKGCFGLKLDRIGSMSGLGCVQQRKDSKKPPAKLQPR; Chimeric CNP J (SEQ ID NO157) of US2010-305031 and WO2009/142307, and CNP derivative A of current invention.)
- Break deformation [1, 4]: 1.15 ± 0.58 mm
- Break energy [1, 4]: 45.91 ± 26.15 N.mm
- Break strength [1, 4]: 72.05 ± 30.40 N
- Maximum load [1, 4]: 81.98 ± 34.64 N
- Stiffness (Δ70%-20%) [1, 4]: 138.36 ± 89.14 N/mm
- Break deformation, left/right ratio [1, 5]: 1.15 ± 0.57
- Break energy, left/right ratio [1, 5]: 0.75 ± 0.33
- Break strength, left/right ratio [1, 5]: 0.80 ± 0.33
- Maximum load, left/right ratio [1, 5]: 0.86 and 0.86 ± 0.35
- Stiffness (Δ70%-20%), left/right ratio [1, 5]: 0.75 ± 0.48
- Break deformation [1, 6]: 0.99 ± 0.15 mm
- Break energy [1, 6]: 59.55 ± 12.33 N.mm
- Break strength [1, 6]: 89.22 ± 6.58 N
- Maximum load [1, 6]: 95.08 ± 5.29 N
- Stiffness (Δ70%-20%) [1, 6]: 187.11 ± 32.64 N/mm
- Break deformation [1, 7]: 1.04 ± 0.45 mm
- Break energy [1, 7]: 53.90 ± 24.24 N.mm
- Break strength [1, 7]: 80.02 ± 15.97 N
- Maximum load [1, 7]: 87.59 ± 19.00 N
- Stiffness (Δ70%-20%) [1, 7]: 162.09 ± 105.67 N/mm
- Break deformation, left/right ratio [1, 8]: 1.02 ± 0.38
- Break energy, left/right ratio [1, 8]: 0.90 and 0.90 ± 0.36
- Break strength, left/right ratio [1, 8]: 1.06 ± 0.33
- Maximum load, left/right ratio [1, 8]: 1.03 and 1.03 ± 0.28
- Stiffness (Δ70%-20%), left/right ratio [1, 8]: 0.85 ± 0.64
- Break deformation [1, 9]: 1.01 ± 0.17 mm
- Break energy [1, 9]: 60.82 ± 13.73 N.mm
- Break strength [1, 9]: 77.75 ± 10.46 N
- Maximum load [1, 9]: 86.89 ± 10.96 N
- Stiffness (Δ70%-20%) [1, 9]: 200.64 ± 43.22 N/mm
- Break energy in a fracture site of the left femur, dose dependence ([1]; 10 and 100 nmol/kg s.c. once per day for 8 weeks, versus vehicle): increased CNP derivative A-dose dependently
- Callus Amount [2, 10]: 2.1 ± 1.0 Grade
- Callus Cartilage [2, 10]: 1.5 ± 2.0 Grade
- Callus Continuity [2, 10]: 3.2 ± 2.1 Grade
- Cortical bone/bone marrow areas Cancellous bone [2, 10]: 2.9 ± 1.7 Grade
- Cortical bone/bone marrow areas Cartilage [2, 10]: 0.9 ± 1.7 Grade
- Cortical bone/bone marrow areas Connective tissue [2, 10]: 0.7 ± 1.6 Grade
- Cortical bone/bone marrow areas Osteoclasts [2, 10]: 0.6 ± 1.1 Grade
- Callus Amount [2, 11]: 2.3 ± 1.2 Grade
- Cortical bone/bone marrow areas Cancellous bone [2, 11]: 3.0 ± 1.1 Grade
- Cortical bone/bone marrow areas Continuity [2, 11]: 2.7 ± 1.8 Grade
- Grade of cartilage formation [2, 12]: tendency for a decreasing grade of cartilage formation
- Grade of ossification of the callus [2, 12]: tendency for an increasing grade of ossification of the callus
- Repair of the bone cut region ([2]; overall conclusion of tissue observation, 8 weeks after fracture): promoted
- Continuity of the cortical bone in soft X-ray images of femurs [3]: tendency for enhanced continuity of the cortical bone
- Remaining fracture line in soft X-ray images of femurs [3]: decreasing tendency for the fracture line to remain
